Values quoted from earlier work as cited in patent US20040132743A1 (DR. REDDY'S LABORATORIES LIMITED DR. REDDY'S LABORATORIES, …, priority 2002, published 2004).

What was measured:
[1] = studies in patients
[2] = amorphous form compared with crystalline form
[3] = in vivo

O=C(O)COCCN1CCN(C(c2ccccc2)c2ccc(Cl)cc2)CC1 (racemic) [cetirizine]
symptomatic relief of seasonal allergies [1]: safe and effective, symptomatic relief of seasonal allergies

CO/N=C(\C(=O)N[C@@H]1C(=O)N2C(C(=O)OC(C)OC(C)=O)=C(COC(N)=O)CS[C@H]12)c1ccco1 (stereo partly drawn) [amorphous form of cefuroxime axetil, cefuroxime axetil]
bioavailability [2]: higher bioavailability than its crystalline form

O=C(O)COCCN1CCN([C@H](c2ccccc2)c2ccc(Cl)cc2)CC1 [Levocetirizine]
side effects on the central nervous system [3]: free from side effects on the central nervous system
